In PMC12469161, “Anti-cancer compound screening identifies Aurora Kinase A inhibition as a means to favor CRISPR/Cas9 gene correction over knock-out” (PLOS One, 2025):
Like-named read-outs stand apart in the source and are kept apart here.

Columns and labels:
HEK293T-eGFP cells = experiment: MTT cytotoxicity assay, 72 hours; type: cell-based
Method: Cells were cultured for 16–24 hours under standard culturing conditions (5% CO2, 37 °C). […] All dose ranges were added in duplicate, followed by 72 hours of incubation. Cell viability was determined using a tetrazolium based metabolic activity assay. Briefly, 5 µL of 3-(4.5-dimethylthiazol-2-yl)-2,5-diphenyltetrazolium bromide (MTT) solution (5 mg/mL MTT in sterile PBS) was added per well, and the microplates were incubated for 4 hours at 37°C and 5% CO2 in a cell culture incubator. Next, 40 µL of 10% SDS/0.01 M HCl was added per well, and the microplates were incubated for 24–72 hours at 37°C and 5% CO2 in a cell culture incubator. Subsequently the absorbance at 570 nm and background absorbance at 720 nm were measured using the Spectramax i3x (Molecular Devices, San Jose, USA). Subsequently, the absorbance values at 720 nm were subtracted from the absorbance values at 570 nm, and the corresponding values were used to plot dose-response curves.
The data was normalized to the DMSO-treated cells (defined as 100% viability) and the empty controls (defined as 0% viability).

[1] = tested on: eGFP locus in HEK293T-eGFP cells (HDR vs NHEJ); experiment: CRISPR gene-editing outcome (eGFP to BFP conversion, flow cytometry) with CRISPR-Cas9 LNP; type: cell-based; conditions: for effect on relative HDR in the compound screen: up to three dosages based on IC50, single measurements; for preferential activation of HDR over NHEJ in hit validation: narrowed dose range, triplicate, vs LNP only; for effect on the NHEJ and HDR outcomes: validated hits, Fig 2B
Method: (§1) Compounds were assessed in three dosages to assess the effects on gene-editing efficacy. […] Cells were incubated with these compounds for 24 hours prior to LNP addition. LNP were added to all wells at a final concentration of 20 nM SpCas9 to achieve robust genome editing. After 24 hours of co-incubation, medium was refreshed and cells were transferred to a 48 well plate for further culturing. Six days after adding compounds, cells were processed for flow cytometric analysis of the gene knock-out and gene-correction efficiencies. Briefly, a ssDNA template was used carrying two nucleotide mutations to convert the eGFP sequence to that of a blue fluorescent protein (BFP), as well as mutating the PAM sequence to ensure robust HDR. The sgRNA spacer sequence was 5’-[…]-3’, and the HDR template sequence was 5’-[…]-3’.
Flow cytometry using the BD FACS Canto II (Becton Dickinson) was used to determine cells undergoing NHEJ (eGFP and BFP negative population) and HDR (eGFP negative, BFP positive). Data analysis was performed using Flowlogic (version 8.7). Graphpad PRISM (version 9.3.1) was used for statistical analysis and preparing graphs.
(§2) The percentage of HDR relative to total gene editing in a given cell population (hereafter named Relative HDR (% of edited cells) was calculated by dividing the absolute HDR population by the sum of gene-edited cells found in the BFP+ and eGFP- gates. Absolute HDR (% of all cells) and Absolute NHEJ (% of all cells) were analyzed where appropriate. The gating strategy is given in S1 Fig in S1 File.

[2] = tested on: eGFP locus in Hepa 1–6-eGFP cells (HDR vs NHEJ); experiment: CRISPR gene-editing outcome (eGFP to BFP, flow cytometry) with ProDeliverIN CRISPR; type: cell-based, murine; conditions: Hepa 1–6-eGFP
Text: Lipid nanoparticles (LNP) carrying SpCas9, sgRNA and HDR template DNA were formulated using the components and molecular ratios described previously. 1,1′-((2-(4-(2-((2-(bis(2-hydroxydodecyl)amino)ethyl)(2-hydroxydodecyl)amino)ethyl)piperazin-1-yl)ethyl)azanediyl)bis(dodecan-2-ol) (C12-200) was acquired from CordonPharma (Plankstadt, Germany) and used as the ionizable lipid in the formulation. 1,2-dioleoyl-sn-glycero-3-phosphoethanolamine (DOPE) was acquired from Lipoid GmbH (Steinhausen, Switzerland), Cholesterol and 1,2-dimyristoyl-rac-glycero-3-methoxypolyethylene glycol-2000 (PEG-DMG) were acquired from Sigma-Aldrich, and 1,2-dioleoyl-3-trimethylammonium-propane (DOTAP) was acquired from Merck (Darmstadt, Germany). LNP were produced using microfluidic mixing with the Dolomite Microfluidics system (Dolomite Microfluidics, Royston, United Kingdom) and herring-bone micromixer chip with hydrophilic coating (Dolomite Microfluidics, catalogue number 3200401). A total flow rate of 1.5 mL/min and flow rate ratio of 2:1 were used between an aqueous outer phase containing SpCas9, sgRNA and HDR template in nuclease free water, and the lipids in 100% ethanol in the inner phase, respectively. The resulting LNP were diluted 4 times in Dulbecco’s PBS (Sigma-Aldrich). In the experiments using the Hepa 1–6 eGFP cells, ProDeliverIN CRISPR (OZ Biosciences, San Diego, USA) was used as reported previously.
as §1
Flow cytometry using the BD FACS Canto II (Becton Dickinson) was used to determine cells undergoing NHEJ (eGFP and BFP negative population) and HDR (eGFP negative, BFP positive). […]
as §2

Hepa 1–6-eGFP cells = experiment: MTS cell viability and morphology, 5 days; type: cell-based, murine; conditions: 0.3 µM, after 5 days, vs untreated control
Method: A narrower cytotoxicity range was determined by exposing cells to 0.1–1 µM of the tested compounds. 48 hours after treatment started, cells were washed and harvested using medium and one third of the volume was transferred to a fresh 96 well plate, analogous to how cells are treated during gene editing experiments. Subsequently, cells were cultured for another 3–5 days. In the case of 5 days, one third of the cells was again transferred into a fresh 96-well plate on day 3 to allow enough space for logarithmic cell growth during the additional incubation time. Cell viability was determined by the Promega One Step MTS assay (Promega, Madison, USA) using the manufacturer’s specifications. Relative cell viability for the Hepa 1–6-eGFP cells was calculated by normalizing the compound conditions to controls treated with DMSO only or DMSO plus gene editing formulations. For the HEK293T cells, the absolute absorbance at […] was used as it was more representative of the relative cell viability between samples.
Cell morphology was assessed using the Nikon Eclipse Ti2 microscope (Nikon Europe, Amstelveen, The Netherlands). Pictures were acquired at 10x magnification with a Nikon DSLR 10 camera using the same imaging settings within each experiment set (Nikon Europe, Amstelveen, The Netherlands).

[3] = 72 h, HEK293T-eGFP cells, 3 days of incubation, MTT, read-out: IC50
[4] = HEK293T-eGFP cells, 3 days of incubation, MTT, read-out: IC50

## C=CCn1c(=O)c2cnc(Nc3ccc(N4CCN(C)CC4)cc3)nc2n1-c1cccc(C(C)(C)O)n1 [Adavosertib]
HEK293T-eGFP cells; [3]
  IC50: 0.227 µM

## C[C@@H]1CN(CC(=O)Nc2ccc3c(c2)Cc2cccc(-c4cc(=O)cc(N5CCOCC5)o4)c2S3)C[C@H](C)O1 [KU-60019]
HEK293T-eGFP cells; [3]
  IC50: > 10 µM

## Cc1[nH]c2ccccc2c1CCNCc1ccc(/C=C/C(=O)NO)cc1 [Panobinostat]
HEK293T-eGFP cells; [3]
  IC50: 0.0306 µM
[1]
  effect on relative HDR in the compound screen: did not show the same effect

## C/C=C1\NC(=O)[C@H]2CSSCC/C=C/[C@H](CC(=O)N[C@H](C(C)C)C(=O)N2)OC(=O)[C@H](C(C)C)NC1=O [Romidepsin]
HEK293T-eGFP cells; 72 h
  IC50: 0.0164 µM
[1]
  effect on relative HDR in the compound screen: strongly inhibited HDR

## Nc1cc(F)ccc1NC(=O)c1ccc(CNC(=O)/C=C/c2cccnc2)cc1 [Epidaza]
HEK293T-eGFP cells; [3]
  IC50: > 10 µM
[1]
  effect on relative HDR in the compound screen: did not show an effect towards improving HDR

## CC[C@H](Nc1nc(NCc2cnc(C)cc2C)c2ncn(C(C)C)c2n1)[C@@H](C)O [CYC065]
HEK293T-eGFP cells; [3]
  IC50: 0.255 µM

## CNc1nc(-c2nc3ccc(N4CCN(C)CC4)cc3n2Cc2ccccc2)cn2c(C)nnc12 [BI 894999]
HEK293T-eGFP cells; [3]
  IC50: 0.582 µM

## C[C@]12CCCN1CC1=NNC(=O)c3cc(F)cc4[nH]c2c1c34 [Pamiparib]
HEK293T-eGFP cells; [3]
  IC50: > 10 µM

## Cc1sc2c(c1C)C(c1ccc(Cl)cc1)=N[C@@H](CC(=O)Nc1ccc(O)cc1)c1nnc(C)n1-2 [Birabresib]
HEK293T-eGFP cells; [3]
  IC50: 0.54 µM

## CNCc1ccc(-c2cc(-c3nc(-c4ccc(S(=O)(=O)C(C)C)cc4)cnc3N)on2)cc1 [Berzosertib]
HEK293T-eGFP cells; [3]
  IC50: 0.335 µM

## CC[C@@H]1C(=O)N(C)c2cnc(Nc3ccc(C(=O)N[C@H]4CC[C@H](N5CCN(CC6CC6)CC5)CC4)cc3OC)nc2N1C(C)C [Volasertib]
HEK293T-eGFP cells; [3]
  IC50: 0.0245 µM

## CNCc1ccc(-c2[nH]c3cc(F)cc4c3c2CCNC4=O)cc1 [Rucaparib]
HEK293T-eGFP cells; [3]
  IC50: > 10 µM
[1]
  preferential activation of HDR over NHEJ in hit validation: strong dose-dependent preferential activation of HDR over NHEJ
  effect on the NHEJ and HDR outcomes: inhibited NHEJ and improved HDR

## CC(C)c1c(-c2ccccc2)[nH]c2c(C#N)cnn2c1=O [CPI-455]
HEK293T-eGFP cells; [4]
  IC50: > 10 µM

## NS(=O)(=O)OC[C@@H]1C[C@@H](n2ccc3c(N[C@H]4CCc5ccccc54)ncnc32)C[C@@H]1O [Pevonedistat]
HEK293T-eGFP cells; [3]
  IC50: 4.74 µM

## CO[C@@H](C(=O)N1Cc2n[nH]c(NC(=O)c3ccc(N4CCN(C)CC4)cc3)c2C1)c1ccccc1 [Danusertib, danusertib]
[2]
  dosage with overall high efficacy and manageable toxicity: 0.3 µM
Hepa 1–6-eGFP cells
  cell morphology by microscopy: not disrupted

## O=c1cc(-c2cccc3c2Sc2ccccc2S3)oc(N2CCOCC2)c1 [KU-55933]
HEK293T-eGFP cells; [3]
  IC50: > 10 µM

## CCN1CCN(Cc2ccc(Nc3ncc(F)c(-c4cc(F)c5nc(C)n(C(C)C)c5c4)n3)nc2)CC1 [Abemaciclib]
HEK293T-eGFP cells; [3]
  IC50: 1.07 µM

## Cc1sc2c(c1C)C(c1ccc(Cl)cc1)=N[C@@H](CC(N)=O)c1nnc(C)n1-2 [CPI-203]
HEK293T-eGFP cells; [4]
  IC50: 0.651 µM

## Cc1sc2c(c1C)C(c1ccc(Cl)cc1)=N[C@@H](CC(=O)O)c1nnc(C)n1-2 [JQ-1 COOH]
HEK293T-eGFP cells; [4]
  IC50: > 10 µM

## Nc1ccccc1NC(=O)c1ccc(CNC(=O)OCc2cccnc2)cc1 [Entinostat]
HEK293T-eGFP cells; [3]
  IC50: 3.56 µM
[1]
  effect on relative HDR in the compound screen: did not show the same effect

## O=C(c1cc(Cc2n[nH]c(=O)c3ccccc23)ccc1F)N1CCN(C(=O)C2CC2)CC1 [Olaparib]
HEK293T-eGFP cells; [3]
  IC50: > 10 µM

## O=C(NC1CCNCC1)c1[nH]ncc1NC(=O)c1c(Cl)cccc1Cl [AT7519]
HEK293T-eGFP cells; [3]
  IC50: 0.438 µM

## CN(C)C/C=C/C(=O)Nc1ccc(C(=O)N2CCC[C@@H](Nc3ncc(Cl)c(-c4c[nH]c5ccccc45)n3)C2)cc1 [THZ531]
HEK293T-eGFP cells; [3]
  IC50: 0.352 µM

## C[C@@H](NC(=O)c1ncnc(N)c1Cl)c1ncc(C(=O)Nc2cc(C(F)(F)F)c(Cl)cn2)s1 [TAK-580]
HEK293T-eGFP cells; [3]
  IC50: > 10 µM

## C[C@@H](Oc1cc(-n2cnc3ccc(CN4CCN(C)CC4)cc32)sc1C(N)=O)c1ccccc1C(F)(F)F [GSK461364]
HEK293T-eGFP cells; [3]
  IC50: 0.00835 µM

## O=C(/C=C/c1cccc(S(=O)(=O)Nc2ccccc2)c1)NO [Belinostat]
HEK293T-eGFP cells; [3]
  IC50: 1.1 µM
[1]
  preferential activation of HDR over NHEJ in hit validation: strong dose-dependent preferential activation of HDR over NHEJ
  effect on the NHEJ and HDR outcomes: increased both NHEJ and HDR

## Cc1cc(C)cc(C(=O)NOCCCCCC(=O)NO)c1 [LMK-235]
HEK293T-eGFP cells; [4]
  IC50: 1.79 µM

## CCn1cc(-c2ccnc3[nH]c(-c4cccc(CN(C)C)c4)cc23)c(-c2ccc(NC(=O)N(C)C)cc2)n1 [GSK1070916]
HEK293T-eGFP cells; [3]
  IC50: 1.39 µM
[1]
  effect on relative HDR in the compound screen: did not show an effect toward relative HDR activation

## CN(C)C/C=C/C(=O)Nc1ccc(C(=O)Nc2cccc(Nc3ncc(Cl)c(-c4c[nH]c5ccccc45)n3)c2)cc1 [THZ1]
HEK293T-eGFP cells; [4]
  IC50: 0.0371 µM

## CN(C)C(=O)c1cc2cnc(Nc3ccc(N4CCNCC4)cn3)nc2n1C1CCCC1 [Ribociclib]
HEK293T-eGFP cells; [3]
  IC50: > 10 µM

## Cc1ncc(Cl)cc1NCc1ccc(C(=O)N[C@@H](CC2CCCC2)C(=O)NC2CC2)s1 [GSK2830371]
HEK293T-eGFP cells; [3]
  IC50: > 10 µM

## Karonudib
HEK293T-eGFP cells; [4]
  IC50: 0.45 µM

## COc1ccc(Cn2ccc3ccc(C(=O)NO)cc32)cc1 [PCI-34051]
HEK293T-eGFP cells; [4]
  IC50: > 10 µM

## CC(=O)O[C@H]1C(=O)[C@@]2(C)[C@H]([C@H](OC(=O)c3ccccc3)[C@]3(O)C[C@H](OC(=O)[C@H](O)[C@@H](NC(=O)c4ccccc4)c4ccccc4)C(C)=C1C3(C)C)[C@]1(OC(C)=O)CO[C@@H]1C[C@@H]2O [Paclitaxel]
HEK293T-eGFP cells; [3]
  IC50: 0.00312 µM

## CCn1cc(-c2cccc(C(F)(F)F)c2)c2sc(C(=N)NC3CCS(=O)(=O)CC3)cc2c1=O [I-BRD9]
HEK293T-eGFP cells; [4]
  IC50: 8.94 µM

## COc1cccc(OCCCN)c1-c1cc(Nc2cnc(C#N)cn2)n[nH]1 [Prexasertib]
HEK293T-eGFP cells; [3]
  IC50: 0.00533 µM

## Oc1nc(-c2ccc(C(F)(F)F)cc2)nc2c1CSCC2 [XAV-939]
HEK293T-eGFP cells; [3]
  IC50: > 10 µM

## C[C@@H]1COCCN1c1cc(C2([S@](C)(=N)=O)CC2)nc(-c2cc[nH]c3nccc2-3)n1 [Ceralasertib]
HEK293T-eGFP cells; [3]
  IC50: 1.84 µM
